Laboratory results published in ChEMBL document CHEMBL1909046, “DrugMatrix in vitro pharmacology data”.

Legend:
Adenosine receptor A1 = molecular target: T1, Adenosine receptor A1 (Homo sapiens, UniProt P30542); type: cell membranes, CHO, Membrane; conditions: cho;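 note: radioligand binding assay at the adenosine A1 receptor, with DPCPX serving as the labelled ligand; in other assays of this panel Not Active means under 50% inhibition at 10 µM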
T1 sequence (P30542 whole entry): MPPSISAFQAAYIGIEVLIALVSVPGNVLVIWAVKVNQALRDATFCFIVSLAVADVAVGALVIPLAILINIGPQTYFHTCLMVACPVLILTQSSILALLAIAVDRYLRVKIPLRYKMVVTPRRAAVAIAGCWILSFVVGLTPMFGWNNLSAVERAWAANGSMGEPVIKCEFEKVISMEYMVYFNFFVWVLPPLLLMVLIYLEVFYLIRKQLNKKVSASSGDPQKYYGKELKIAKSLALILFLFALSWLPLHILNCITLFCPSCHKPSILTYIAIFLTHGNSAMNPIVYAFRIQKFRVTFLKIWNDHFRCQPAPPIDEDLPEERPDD

[1] = molecular target: cGMP-specific 3',5'-cyclic phosphodiesterase (Homo sapiens, UniProt O76074); experiment: DRUGMATRIX: Phosphodiesterase PDE5 enzyme inhibition (substrate: [3H]cGMP + cGMP); type: tissue-based; conditions: platelet; Not Active = under 50% inhibition at 10 µM
[2] = DRUGMATRIX: Phosphodiesterase PDE4 enzyme inhibition (substrate: [3H]cAMP + cAMP); conditions: u-937, Not Active = under 50% inhibition at 10 µM
Substance-K receptor = molecular target: T2, Substance-K receptor (Homo sapiens, UniProt P21452); type: cell membranes, CHO, Membrane; conditions: cho; note: in other assays of this panel Not Active means under 50% inhibition at 10 µM
T2 sequence (P21452 whole entry): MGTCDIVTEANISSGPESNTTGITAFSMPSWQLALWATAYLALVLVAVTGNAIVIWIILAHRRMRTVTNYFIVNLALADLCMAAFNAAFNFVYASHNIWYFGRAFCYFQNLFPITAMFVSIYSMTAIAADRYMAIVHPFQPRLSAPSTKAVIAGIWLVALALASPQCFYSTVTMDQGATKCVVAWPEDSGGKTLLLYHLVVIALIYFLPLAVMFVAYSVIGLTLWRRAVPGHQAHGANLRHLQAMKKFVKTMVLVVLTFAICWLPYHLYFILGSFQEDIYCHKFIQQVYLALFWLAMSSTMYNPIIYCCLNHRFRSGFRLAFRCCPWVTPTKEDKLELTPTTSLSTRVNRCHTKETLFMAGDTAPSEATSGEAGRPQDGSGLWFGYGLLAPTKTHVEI

[3] = molecular target: Beta-3 adrenergic receptor (Homo sapiens, UniProt P13945); experiment: DRUGMATRIX: Adrenergic beta3 radioligand binding (ligand: [125I] Cyanopindolol); type: cell membranes, HEK293, Membrane; conditions: hek293; Not Active = under 50% inhibition at 10 µM
Beta-3 adrenergic receptor, sequence (P13945 whole entry): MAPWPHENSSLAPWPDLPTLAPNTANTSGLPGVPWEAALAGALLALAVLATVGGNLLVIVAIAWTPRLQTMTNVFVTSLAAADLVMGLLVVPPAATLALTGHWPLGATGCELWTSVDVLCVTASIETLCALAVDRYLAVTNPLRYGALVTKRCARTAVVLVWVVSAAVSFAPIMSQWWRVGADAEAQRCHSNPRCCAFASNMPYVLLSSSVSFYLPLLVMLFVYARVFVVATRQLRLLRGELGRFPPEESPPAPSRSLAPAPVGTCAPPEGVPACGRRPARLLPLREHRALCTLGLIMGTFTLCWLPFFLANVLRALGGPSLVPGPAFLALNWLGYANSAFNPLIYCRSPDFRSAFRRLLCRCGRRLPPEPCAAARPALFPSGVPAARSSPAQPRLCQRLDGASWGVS

Row | Structure (SMILES) | IC50 (Adenosine receptor A1) | IC50 [1] | IC50 [2] | Ki [2] | IC50 (Substance-K receptor) | IC50 [3] | IC50 ([2]; read-out: IC50)
1 | Clc1cc2c(cc1Cl)Oc1cc(Cl)c(Cl)cc1O2 [2,3,7,8-TETRACHLORODIBENZO-P-DIOXIN] | Not Active | Not Active | Not Active | Not Active | Not Active | Not Active | –
2 | CNC(=C[N+](=O)[O-])NCCSCc1csc(CN(C)C)n1 [NIZATIDINE] | Not Active | Not Active | Not Active | Not Active | Not Active | Not Active | –
3 | N=C(N)N/N=C/c1c(Cl)cccc1Cl [GUANABENZ] | Not Active | Not Active | Not Active | Not Active | Not Active | Not Active | –
4 | CC(C)C[C@H]1C(=O)N2CCC[C@H]2[C@]2(O)O[C@](NC(=O)[C@@H]3C=C4c5cccc6[nH]c(Br)c(c56)C[C@H]4N(C)C3)(C(C)C)C(=O)N12 [BROMOCRIPTINE] | Not Active | Not Active | Not Active | Not Active | Not Active | Not Active | –
5 | COc1ccc2cc(CCC(C)=O)ccc2c1 [NABUMETONE] | Not Active | Not Active | Not Active | Not Active | Not Active | Not Active | –
6 | CC(C(=O)O)c1ccc(CC2CCCC2=O)cc1 (stereo not drawn) [LOXOPROFEN] | Not Active | Not Active | Not Active | Not Active | Not Active | Not Active | –
7 | CCCCCC[C@H]1C(=O)O[C@H](C)[C@H](NC(=O)c2cccc(NC=O)c2O)C(=O)O[C@@H](C)[C@@H]1OC(=O)CC(C)C [ANTIMYCIN A] | Not Active | Not Active | Not Active | Not Active | Not Active | Not Active | –
8 | Cc1cnc(C(=O)NCCc2ccc(S(=O)(=O)NC(=O)NC3CCCCC3)cc2)cn1 [GLIPIZIDE] | Not Active | Not Active | Not Active | Not Active | Not Active | Not Active | –
9 | COc1ccc(Cc2nccc3cc(OC)c(OC)cc23)cc1OC [PAPAVERINE] | Not Active | Not Active | – | – | Not Active | Not Active | 817 nM
10 | O=c1cc(-c2ccccc2)oc2ccc3ccccc3c12 [BETA-NAPHTHOFLAVONE] | Not Active | Not Active | Not Active | Not Active | Not Active | Not Active | –
11 | CC(=O)O[C@]1(C(C)=O)CC[C@H]2[C@@H]3C=C(Cl)C4=CC(=O)[C@@H]5C[C@@H]5[C@]4(C)[C@H]3CC[C@@]21C [CYPROTERONE ACETATE] | Not Active | Not Active | Not Active | Not Active | Not Active | Not Active | –
12 | CCN[C@@H](C)Cc1cccc(C(F)(F)F)c1 [DEXFENFLURAMINE] | Not Active | Not Active | Not Active | Not Active | Not Active | Not Active | –
13 | Nn1nnc2ccccc21 | Not Active | Not Active | Not Active | Not Active | Not Active | Not Active | –
14 | O=C(O)Cc1ccc(-c2ccccc2)cc1 [FELBINAC] | Not Active | Not Active | Not Active | Not Active | Not Active | Not Active | –
